Test results as given in patent US20120046363A1, “DOCOSAHEXAENOIC ACID FOR THE TREATMENT OF HEART FAILURE” (University of Maryland, Baltimore, priority 2009, published 2012).

Key:
[1] = Rat abdominal aortic constriction (banding) pressure overload model of HF; type: in vivo, male Wistar rats; settings: rats with aortic banding; ALA from flaxseed oil
Excerpt: A dose-response study was completed with EPA+DHA from fish oil using the rat abdominal aortic constriction pressure overload model of HF. In this model a permanent band is tied around the supra-renal abdominal aorta of male Wistar rats (˜200 g) by placing a blunt needle (20G) along the aorta and tying a 3-0 silk suture around both the aorta and the needle. The needle is removed, leaving the diameter of the aortic lumen determined by the diameter of the needle. The increase in aortic pressure results in progressive LV hypertrophy, mitochondrial dysfunction and decreased activity of mitochondrial enzymes, and LV dilation and contractile dysfunction and thus HF^2, 207-213.
Rats were subjected to abdominal aortic banding and assigned them to 12 wks of treatment with either a standard chow or chow supplemented with EPA+DHA from fish oil at either 0.7, 2.3 or 7% of the total energy intake, with an EPA/DHA ration at a 30/70 mix, respectively. These doses correspond to estimated human doses of 1.6, 5.1 and 15.6 g/day (calculated assuming an energy intake of 2000 kcals/day in humans, and 9 kcals/g of EPA+DHA), thus we spanned both sides of the FDA approved human dose of 3.4 g/day. […] There were no differences in body mass or heart rate among groups. LV mass was 37% greater in the banded rats compared to sham on the standard diet. […]

[2] = mammalian cells; cited from earlier work
[3] = similar patient population to GISSI-HF; cited from earlier work

| Compound | cardiomyocyte apoptosis with supplementation [1] | conversion of ALA to EPA [2] [%] | beneficial effect in HF patients [3] |
| --- | --- | --- | --- |
| CC/C=C\C/C=C\C/C=C\CCCCCCCC(=O)O [ALA, α-linolenic acid] | less apoptosis | ~10 |  |
| CC(C)c1nc(N(C)S(C)(=O)=O)nc(-c2ccc(F)cc2)c1/C=C/[C@@H](O)C[C@@H](O)CC(=O)O [rosuvastatin] |  |  | no beneficial effect |
